Experimental data from patent publication US20020173662A1, “Parasiticidal pyrazoles” (priority 1998, published 2002).

Test system: adult Stomoxys calcitrans
Assay: Test for insecticidal activity: topical application to adult flies, mortality at 24 hours
Type: in vivo
Settings: acetone solution (1 μl) applied to thorax, mortality assessed 24 hours after dosing
Description: Test for Insecticidal Activity Adult flies (Stomoxys calcitrans) are collected and anaesthetized using CO2. An acetone solution (1 μl) containing the test compound is applied directly to the thorax of each fly and then the flies are placed carefully into a 50 ml tube covered with damp gauze to recover from the CO2. Negative controls have acetone (1 μl) dispensed onto them. Mortality is assessed 24 hours after dosing. Table 1 illustrates the in vivo activity of a selection of the compounds of the invention against adult Stomoxys calcitrans. Dosages required to produce 100% mortality are given in the final column as μg/fly.

Row | Compound | Dosage required to produce 100% mortality [μG/FLY]
1 | FC(F)(F)c1cc(Cl)c(-n2cc(C3CC3(Br)Br)c(Br)n2)c(Cl)c1 (stereo not shown) [Example 11, 3-Bromo4-(2,2-dibromocyclopropyl)-1-(2,6-dichloro-4-trifluoromethylphenyl)pyrazole] | 0.05
2 | C=Cc1nn(-c2c(Cl)cc(C(F)(F)F)cc2Cl)cc1C1CC1(Br)Br (stereo not shown) [Example 4, 4-(2,2-Dibromocyclopropyl)-1-(2,6-dichloro-4-trifluoromethylphenyl)-3-ethenylpyrazole] | 0.10
3 | FC(F)(F)c1cc(Cl)c(-n2cc(C3CC3(Br)Br)cn2)c(Cl)c1 (stereo not shown) [Example 9, 4-(2,2-Dibromocyclopropyl)-1-(2,6-dichloro-4-trifluoromethylphenyl)pyrazole] | 0.05
4 | FC(F)=Cc1nn(-c2c(Cl)cc(C(F)(F)F)cc2Cl)cc1C1CC1(Br)Br (stereo not shown) [Example 5, 4-(2,2-Dibromocyclopropyl)-1-(2,6-dichloro-4-trifluoromethylphenyl)-3-(2,2-difluoroethenyl)pyrazole] | 0.10

Test system: Boophilus microplus larvae
Assay: Test for acaricidal activity: treated filter paper envelope, larval mortality
Settings: larvae in treated filter paper envelope; 25° C.; mortality assessed after 48 hours
Description: Test for Acaricidal Activity
A dose of 10 μg/cm^2 is created by evenly pipetting 0.5 ml of a 1 mg/ml solution of the test compound in a suitable solvent such as acetone or ethanol onto a Whatman No. 1 (Trade Mark) filter paper cut to a size of 8×6.25 cm. When dry, the paper is folded in half, sealed on two sides using a crimping device and placed in a Kilner jar containing a cotton wool pad dampened with water. The jar is then sealed and placed at 25° C. for 24 hours. Next, approximately 50 Boophilus microplus larvae are introduced into the treated paper envelope which is then crimped along the third side to effect a complete seal. The paper envelope is returned to the Kilner jar, which is sealed and placed at 25° C. for a further 48 hours. The papers are then removed and mortality assessed. Negative controls are provided by treating an appropriately cut filter paper with 0.5 ml of solvent only and following the same procedure. Activity at other doses is obtained by varying the concentration of the test solution.
Table 2 illustrates the in vitro activity of a selection of the compounds of the invention against Boophilus microplus larvae. Dosages required to produce 100% mortality are given in the final column as μg/cm^2.

Row | Compound | Dosage required to produce 100% mortality [μg/cm^2]
5 | FC(F)(F)c1cc(Cl)c(-n2cc(C3CC3(Br)Br)c(Br)n2)c(Cl)c1 (stereo not shown) [Example 11, 3-Bromo4-(2,2-dibromocyclopropyl)-1-(2,6-dichloro-4-trifluoromethylphenyl)pyrazole] | 1.00
6 | FC(F)(F)c1cc(Cl)c(-n2cc(C3CC3(Br)Br)c(Cl)n2)c(Cl)c1 (stereo not shown) [Example 10, 3-Chloro-4-(2,2-dibromocyclopropyl)-1-(2,6-dichloro-4-trifluoromethylphenyl)pyrazole] | 1.00

Test system: not given
Assay: not given
Settings: not given

Row | melting point [°C] | Compound
7 | 106 to 107 | FC(F)(F)c1cc(Cl)c(-n2cc(C3CC3(Br)Br)c(C=C(Br)Br)n2)c(Cl)c1 (stereo not shown) [Example 6, 4-(2,2-Dibromocyclopropyl)-3-(2,2-dibromoethenyl)-1-(2,6-dichloro-4-trifluoromethylphenyl)pyrazole]
8 | 124.9 to 126 | Nc1nn(-c2c(Cl)cc(C(F)(F)F)cc2Cl)cc1C1CC1(Br)Br (stereo not shown) [Example 8, 3-Amino-4-(2,2-dibromocyclopropyl)-1-(2,6-dichloro-4-trifluoromethylphenyl)pyrazole]
9 | 86.5 to 88.2 | C=C(C)c1nn(-c2c(Cl)cc(C(F)(F)F)cc2Cl)cc1C1CC1(Br)Br (stereo not shown) [Example 1, 4-(2,2-Dibromocyclopropyl)-1-(2,6-dichloro-4-trifluoromethylphenyl)-3-(propen-2-yl)pyrazole]
10 | 186.2 to 187.3 | NC(=O)c1nn(-c2c(Cl)cc(C(F)(F)F)cc2Cl)cc1C1CC1(Br)Br (stereo not shown) [Example 7, 3-Carbamoyl-4-(2,2-dibromocyclopropyl)-1-(2,6-dichloro-4-trifluoromethylphenyl)pyrazole]
